The record followed here is article PMC5350466 (mBio, 2017).

pKi: −log10 of the molar value. Values after ≈ are worked out from the molar mass of the structure shown. Some results are limits rather than exact numbers.

In general, MIC refers to the lowest concentration found to suppress growth. For orientation: pKi means the negative decadic logarithm of the Ki, by convention in mol/L.

For one experiment, the system named is B. cenocepacia K56-2. Put plainly: MIC by broth microdilution, parental strain. The class given is cell-based, Burkholderia cenocepacia. Particulars: broth microdilution in cation-adjusted MHB at 18 to 24 h; for MIC: Burkholderia cenocepacia, K562.
The target of experiment [1] is T1, BcnA (Burkholderia cenocepacia, UniProt B4EE32).
T1 sequence (B4EE32 27-186): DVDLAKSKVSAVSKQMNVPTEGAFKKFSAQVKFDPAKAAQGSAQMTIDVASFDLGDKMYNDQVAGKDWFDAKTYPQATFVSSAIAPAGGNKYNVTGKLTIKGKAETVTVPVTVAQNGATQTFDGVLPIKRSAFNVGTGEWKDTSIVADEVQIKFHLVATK
In words: In vitro binding assay: Nile red displacement from BcnA. Particulars: against 1.5 µM Nile red binding to 1.5 µM BcnA in PBS; read-out: binding inhibition constant (Ki). The procedure:
In vitro binding assays were performed as previously described ([23]), with a few modifications. Purified BCNs were prepared in phosphate-buffered saline (PBS, pH 7.4). Phospholipids and Nile red were prepared in DMSO. […] All spectra were corrected for background fluorescence determined from probe-into-buffer titrations. Fluorescence was measured with a Cary Eclipse fluorescence spectrophotometer (Varian) set at an excitation wavelength (λex) specific for each probe, as follows: Nile red, 550 nm; BODIPY phospholipids, 500 nm for fatty acyl BODIPY-labeled phosphocholine and 505 nm for head group BODIPY-labeled phosphoethanolamine. The emission spectrum for each probe was collected across the following wavelengths (λem): Nile red, 590 to 750 nm; BODIPY phospholipids, 510 to 665 nm. The background-corrected binding fluorescence with each probe was fitted to a one-site binding model as previously described for human AGP ([23]). The equilibrium binding affinity constant for the probe-BCN complex (Kd), the probe concentration needed to achieve half-maximum binding at equilibrium, was determined by nonlinear least-squares regression analysis of the binding isotherms with GraphPad Prism v 5.0 software (GraphPad Software, Inc.).
For probe displacement experiments, antibiotic solutions and fat-soluble vitamins (prepared in DMSO) diluted in PBS, pH 7.4, were titrated against a BCN-probe complex at a saturating concentration necessary to obtain the maximum fluorescence when bound. Probe displacement was measured as the corresponding decrease in fluorescence upon the progressive increase in the antibiotic concentration. The binding inhibition constants (Kis) of the test compounds were determined by nonlinear regression analysis with competition-binding equations for one-site binding calculated by GraphPad Prism v 5.0 software. The lower the Ki values, the higher the affinity of the molecule for BcnA. All fluorometric assays were conducted in duplicate three independent times.

A further experiment has as its system bcnA::luxCDABE. In words: Luciferase expression assay, bcnA::luxCDABE. The format is cell-based, Burkholderia cenocepacia. Particulars: antibiotic at concentrations near the MIC (sublethal), 3 h.
Another experiment relates to bcnB::luxCDABE. In words: Luciferase expression assay, bcnB::luxCDABE. The format is cell-based, Burkholderia cenocepacia. Particulars: antibiotic at concentrations near the MIC (sublethal), 3 h.
In experiment [2] the target is T1, BcnA. Put plainly: Antibiotic bioassay of sequestration by BcnA. The class given is binding. Particulars: 1.5 µM BcnA, 30 min at 37°C, 10-kDa cutoff filtration. As for the experimental part: Antibiotic test solutions with or without 1.5 µM BcnA were incubated for 30 min at 37°C with rotation. The solutions were filtered through filter units with a 10-kDa cutoff by centrifugation at 7,500 × g, at 4°C for 10 min. The antibiotic concentrations in the filtrates were determined by spotting 5 µl onto sterile filter discs placed on agar plates swabbed with the test bacteria. Petri dishes (15-cm diameter) containing 40 ml of LB agar were swabbed with bacterial suspensions with an OD600 of 0.04. The plates were incubated at 37°C for 24 h. Each plate included four discs containing standard concentrations of the antibiotic alongside the discs impregnated with test and control antibiotic solutions. E. coli DH5α was used for bioassays of PmB, norfloxacin, ceftazidime, and gentamicin, and S. aureus USA300 was used for bioassays of rifampin. The theoretical disc contents of the test antibiotic solutions were 10, 5, 2, 30, and 10 µg for PmB, rifampin, norfloxacin, ceftazidime, and gentamicin, respectively. Standard antibiotic discs contained a 2-fold higher concentration than, the same concentration as, or a 2- or 4-fold lower concentration than the test antibiotic discs. After incubation, the clear zones of inhibition were measured and the antibiotic concentrations were determined from standard curves constructed from the standard antibiotic discs.

For experiment [3], the system named is B. cenocepacia ΔbcnA mutant. In words: MIC by broth microdilution, ΔbcnA mutant. The class given is cell-based, Burkholderia cenocepacia. (In general: In broth dilution the organism is exposed to a series of concentrations in liquid medium.)
In experiment [4] the test system is B. cenocepacia ΔbcnB mutant. In words: MIC by broth microdilution, ΔbcnB mutant. The format is cell-based, Burkholderia cenocepacia. Particulars: broth microdilution in cation-adjusted MHB at 18 to 24 h.
The next experiment has as its system K56-2 pSCRhaB2. In words: MIC by E test. Particulars: Burkholderia cenocepacia, 24 h, read-out: MIC by Etest, K56-2 pSCRhaB2. The class given is cell-based.
Another experiment has as its system ΔbcnA pSCRhaB2. In words: MIC by E test. The class given is cell-based, Burkholderia cenocepacia. Particulars: 24 h.
The next experiment has as its system ΔbcnA pbcnA (Sa). Put plainly: MIC by E test. The class given is cell-based, Burkholderia cenocepacia. Particulars: 24 h.

With `COc1cc(Cc2cnc(N)nc2N)cc(OC)c1OC` [Trimethoprim, trimethoprim], in the experiment with B. cenocepacia K56-2, the MIC turned out to be 8 µg/mL (≈ 27.6 µM).
Same read-out and setting: the value for `C[C@@H](O)[C@H]1C(=O)N2C(C(=O)O)=C(S[C@@H]3CN[C@H](C(=O)N(C)C)C3)[C@H](C)[C@H]12` [Meropenem, meropenem] was 1 µg/mL (≈ 2.61 µM).
For `CCn1cc(C(=O)O)c(=O)c2cc(F)c(N3CCNCC3)cc21` [Norfloxacin, norfloxacin], the MIC with B. cenocepacia K56-2 worked out at 128 µg/mL (≈ 401 µM). Besides, the pKi on BcnA [1] is 3.40. Further, the “expression of bcnA::luxCDABE upon exposure to antibiotic” value in the experiment on bcnA::luxCDABE was “upregulated”. The “expression of bcnB::luxCDABE upon exposure to antibiotic” value with bcnB::luxCDABE is given as “increased”. Moreover, the “antibiotic sequestration by BcnA” value at BcnA [2] is given as “sequestered”.
As for `CN(C)c1ccc(O)c2c1C[C@H]1C[C@H]3[C@H](N(C)C)C(O)=C(C(N)=O)C(=O)[C@@]3(O)C(O)=C1C2=O` [Minocycline, minocycline], the MIC with B. cenocepacia K56-2 is 2 µg/mL (≈ 4.37 µM).
As for polymyxin B [PmB], the “MIC K56-2” value in the experiment with B. cenocepacia K56-2 was ≥ 4096 µg/mL. Besides, the “MIC ΔbcnA” value in experiment [3] (broth microdilution in cation-adjusted MHB at 18 to 24 h) was determined as 2048 µg/mL. Further, the “MIC reduction in the ΔbcnA mutant” value in experiment [3] (ΔbcnA mutant relative to parental strain) came out at 4 fold. Further, in experiment [4], the “MIC ΔbcnB” value is ≥ 4096 µg/mL. For the same compound, the “expression of bcnA::luxCDABE upon exposure to antibiotic” value with bcnA::luxCDABE was “upregulated”. Besides, the “antibiotic sequestration by BcnA” value on BcnA [2] is recorded as “sequestered”.
Take `O=C(O)c1cn(C2CC2)c2cc(N3CCNCC3)c(F)cc2c1=O` [Cipro, ciprofloxacin]: the MIC in the experiment with K56-2 pSCRhaB2 stood at 4 µg/mL (≈ 12.1 µM). Further, the “MIC by Etest, ΔbcnA pSCRhaB2” value with ΔbcnA pSCRhaB2 worked out at 2 μg/ml. Further, the “MIC by Etest, ΔbcnA pbcnA (Sa)” value in the experiment on ΔbcnA pbcnA (Sa) was 4 µg/mL (≈ 12.1 µM).
As for `Cc1c(C)c2c(c(C)c1O)CC[C@@](C)(CCC[C@H](C)CCC[C@H](C)CCCC(C)C)O2` [Vit E, α-tocopherol], the pKi at BcnA [1] was 6.38.
As for `CC[C@H]1OC(=O)[C@H](C)[C@@H](O[C@H]2C[C@@](C)(OC)[C@@H](O)[C@H](C)O2)[C@H](C)[C@@H](O[C@@H]2O[C@H](C)C[C@H](N(C)C)[C@H]2O)[C@](C)(O)C[C@@H](C)CN(C)[C@H](C)[C@@H](O)[C@]1(C)O` [Azithromycin, azithromycin], in the experiment with B. cenocepacia K56-2, the MIC was determined as 64 µg/mL (≈ 85.4 µM).
For `CNC(C)C1CCC(N)C(OC2C(N)CC(N)C(OC3OCC(C)(O)C(NC)C3O)C2O)O1` (centres unmarked) [Gentamicin, gentamicin], the MIC in the experiment with B. cenocepacia K56-2 was determined as 2050 µg/mL (≈ 4290 µM). Further, the “expression of bcnA::luxCDABE upon exposure to antibiotic” value with bcnA::luxCDABE is on record as “remained unchanged”. Besides, on BcnA [2], the “antibiotic sequestration by BcnA” value was “not”.
On to `CO[C@H]1/C=C/O[C@@]2(C)Oc3c(C)c(O)c4c(O)c(c(/C=N/N5CCN(C)CC5)c(O)c4c3C2=O)NC(=O)/C(C)=C\C=C\[C@H](C)[C@H](O)[C@@H](C)[C@@H](O)[C@@H](C)[C@H](OC(C)=O)[C@@H]1C` [Rifampicin, rifampin], for which the minimal inhibitory concentration (MIC) with B. cenocepacia K56-2 was 256 µg/mL (≈ 311 µM); in the experiment on K56-2 pSCRhaB2, ≥ 64 µg/mL. For the same compound, the “MIC by Etest, ΔbcnA pSCRhaB2” value against ΔbcnA pSCRhaB2 turned out to be 16 μg/ml. Further, the “MIC by Etest, ΔbcnA pbcnA (Sa)” value with ΔbcnA pbcnA (Sa) is ≥ 64 µg/mL. Besides, the pKi at BcnA [1] is 4.78. Further, the “expression of bcnA::luxCDABE upon exposure to antibiotic” value in the experiment with bcnA::luxCDABE is listed as “upregulated”. Besides, the “antibiotic sequestration by BcnA” value on BcnA [2] is recorded as “sequestered”.
For menaquinone [Vit K2], the negative logarithm of the Ki (pKi) at BcnA [1] is 6.24.
On to `CC(C)(O/N=C(\C(=O)N[C@@H]1C(=O)N2C(C(=O)[O-])=C(C[n+]3ccccc3)CS[C@H]12)c1csc(N)n1)C(=O)O` [Ceftazidime, ceftazidime], for which the MIC came out at 32 µg/mL (≈ 58.5 µM) with B. cenocepacia K56-2 and 8 µg/mL (≈ 14.6 µM) in the experiment on K56-2 pSCRhaB2. For the same compound, in the experiment with ΔbcnA pSCRhaB2, the “MIC by Etest, ΔbcnA pSCRhaB2” value turned out to be 2 μg/ml. Besides, the “MIC by Etest, ΔbcnA pbcnA (Sa)” value against ΔbcnA pbcnA (Sa) turned out to be 8 µg/mL (≈ 14.6 µM). For the same compound, the pKi at BcnA [1] was 1.77. Further, the “expression of bcnA::luxCDABE upon exposure to antibiotic” value in the experiment with bcnA::luxCDABE is given as “upregulated”. Also, the “expression of bcnB::luxCDABE upon exposure to antibiotic” value with bcnB::luxCDABE is recorded as “increased”. The “antibiotic sequestration by BcnA” value at BcnA [2] was “sequestered”.
